The target in data set [1] is T1, cloned human 5-HT6 receptor (Homo sapiens, UniProt P50406).
T1 construct: host or cells: HeLa cells (G-418 selected); membrane preparation
Nature of the data set: 5-HT6 receptor binding assay ([3H]-LSD radioligand, SPA beads). The note with it: membranes of Hela cells containing cloned human 5-HT6 receptor, IC50 converted by Cheng-Prusoff. The method, then:
5-HT6 Receport Binding Assay
Growth of Cells and Membrane Preparation
Hela cells containing the cloned human 5-HT6 receptor were acquired from Dr. David R. Sibley's laboratory in National Institute of Health (see Sibley, D. R., J. Neurochemistry, 66, 47-56, 1996). Cells were grown in high glucose Dulbecco's modified Eagle's medium, supplemented with L-glutamine, 0.5% sodium pyruvate, 0.3% penicillin-streptomycin, 0.025% G-418 and 5% Gibco fetal bovine serum and then were harvested, when confluent, in cold phosphate buffered saline.
Harvested intact cells were washed once in cold phosphate-buffered saline. The cells were pelleted and resuspended in 100 ml of cold 50 mM Tris, 5 mM EDTA and 5 mM EGTA, pH 7.4. Homogenization was with a Vir Tishear generator, 4 cycles for 30 seconds each at setting 50. The homogenized cells were centrifuged at […] for 10 minutes and the supernatant was removed. The pellet was resuspended in 100 ml of the above buffer and rehomogenized for 2 cycles. The rehomogenized cells were then centrifuged at […] for 10 minutes and the supernatant was removed. The combined supernatant (200 ml) was centrifuged at 23,000 RPM (80,000×g) for 1 hour in a Beckman Rotor (42.1 Ti). The membrane pellet was resupended in 50-8-ml of assay buffer containing HEPES 20 mM, MgCl2 10 mM, NaCl 150 mM, EDTA 1 mM, pH 7.4 and stored frozen in aliqouts at −70° C.
5-HT6 Receptor Binding Assay
The radioligand binding assay used [^3H]-lysergic acid diethylamide (LSD). The assay was carried out in Wallac 96-well sample plates by the addition of 11 μl of the test sample at the appropriate dilution (the assay employed 11 serial concentrations of samples run in duplicate), 11 μl of radioligand, and 178 μl of a washed mixture of WGA-coated SPA beads and membranes in binding buffer. The plates were shaken for about 5 minutes and then incubated at room temperature for 1 hour. The plates were then loaded into counting cassettes and counted in a Wallac MicroBeta Trilux scintillation counter.
Binding Constant (Ki) Determination
Eleven serial dilutions of test compounds were distributed to assay plates using the PE/Cetus Pro/Pette pipetter. These dilutions were, followed by radioligand and the bead-membrane mixture prepared as described above. The specifically bound cpm obtained were fit to a one-site binding model using GraphPad Prism ver. 2.0. Estimated IC50 values were converted to Ki values using the Cheng-Prusoff equation (Cheng, Y. C. et al., Biochem. Pharmacol., 22, 3099-108, 1973).

Where a name gives a salt, the structure may show the parent alone.

For 21 molecules, Ki and melting point results are on record in patent US6821970B2, “Oxazinocarbazoles for the treatment of CNS diseases” (Pharmacia & Upjohn Company, priority 1999, dated 2004).

T1 sequence (P50406 whole entry): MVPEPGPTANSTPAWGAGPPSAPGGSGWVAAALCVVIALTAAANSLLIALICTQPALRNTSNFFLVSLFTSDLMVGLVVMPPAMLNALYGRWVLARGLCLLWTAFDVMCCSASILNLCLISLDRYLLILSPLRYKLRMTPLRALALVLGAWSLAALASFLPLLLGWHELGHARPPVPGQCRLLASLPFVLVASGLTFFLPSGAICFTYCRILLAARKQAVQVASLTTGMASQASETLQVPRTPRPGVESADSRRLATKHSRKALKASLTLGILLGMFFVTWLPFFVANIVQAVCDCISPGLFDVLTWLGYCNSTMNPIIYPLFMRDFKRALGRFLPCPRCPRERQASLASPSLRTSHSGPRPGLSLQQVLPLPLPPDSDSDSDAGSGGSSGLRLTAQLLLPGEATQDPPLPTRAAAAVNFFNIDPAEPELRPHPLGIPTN

In data set [1], `NCCOc1cccc2c1c1cccc3c1n2C(c1ccccc1)CO3` (centres unmarked) [Example 4, [(1-Phenyl-1,2-dihydro[1,4]oxazino[2,3,4-jk]carbazol-7-yl)oxy]ethanamine] displayed an inhibitory constant (Ki) of 1.7 nM.
As for `CN1CCN(CCOc2cccc3c2c2cccc4c2n3C(c2ccccc2)CO4)CC1` (centres unmarked) [Example 14, 2-(4-Methyl-1-piperazinyl)ethyl 1-phenyl-1,2-ihydro[1,4]oxazino [2,3,4-jk]carbazol-7-yl Ether], the melting point is 57 °C. This molecule showed a Ki in data set [1] of 6.9 nM.
The molecule `CS(=O)(=O)O.NCCOc1cccc2c1c1cccc3c1n2[C@H](c1ccccc1)CO3` [Example 2, (R)-(−)-[(1-Phenyl-1,2-dihydro[1,4]oxazino[2,3,4-jk]carbazol-7-yl)oxy]ethanamine] had a melting point of 236 °C.
Molecule `CCNCCOc1cccc2c1c1cccc3c1n2C(c1ccccc1)CO3.O=C(O)/C=C\C(=O)O` (centres unmarked) [Example 6, N-Ethyl-2-[(1-phenyl-1,2-dihydro[1,4]oxazino[2,3,4-jk]carbazol-7-yl)oxy]-1-ethanamine] registered a melting point of 105 °C. Further, in data set [1], the inhibition constant (Ki) was determined as 2.7 nM.
For the molecule `Cc1cc2c3c(c1)c1c(OCCN)cccc1n3C(c1ccccc1)CO2` (centres unmarked) [Example 19, 2-[(5-Methyl-1-phenyl-1,2-dihydro[1,4]oxazino[2,3,4-jk]carbazol-7-yl)oxy]-1-ethanamine], the Ki in data set [1] came to 8 nM.
The molecule `CC(C)(C)OC(=O)N1CCN(CCOc2cccc3c2c2cccc4c2n3C(c2ccccc2)CO4)CC1` (centres unmarked) [Example 12, tert-Butyl 4-{2-[(1-phenyl-1,2-dihydro[1,4]oxazino[2,3,4-jk]carbazol-7-yl)oxy]ethyl}-1-piperazinecarboxylate] registered a melting point of 72 °C. The molecule also returned a Ki in data set [1] of 35 nM.
As for `c1ccc(C2COc3cccc4c5c(OCCN6CCOCC6)cccc5n2c34)cc1` (centres unmarked) [Example 15, 2-(4-Morpholinyl)ethyl 1-phenyl-1,2-dihydro[1,4]oxazino[2,3,4-jk]carbazol-7-yl Ether], the Ki in data set [1] was 97 nM.
In data set [1], `O=CNCCOc1cccc2c1c1cccc3c1n2C(c1ccccc1)CO3` (centres unmarked) [Example 7, 2-[(1-Phenyl-1,2-dihydro[1,4]oxazino[2,3,4-jk]carbazol-7-yl)oxy]ethylformamide] gave a Ki of 39 nM. Against the preceding molecule, the Ki is about 2.5-fold lower.
On the same count and under the same terms, the figure for `NCCOc1c(Cl)ccc2c1c1cccc3c1n2C(c1ccccc1)CO3` (centres unmarked) [Example 9, 2-[(8-Chloro-1-phenyl-1,2-dihydro[1,4]oxazino[2,3,4-jk]carbazol-7-yl)oxy]-1-ethanamine] is 5.8 nM; for `CCNCCOc1cccc2c1c1cc(C)cc3c1n2C(c1ccccc1)CO3` (centres unmarked) [Example 11, N-Ethyl-2-[(5-methyl-1-phenyl-1,2-dihydro[1,4]oxazino[2,3,4-jk]carbazol-7-yl)oxy]-1-ethanamine] it is 5.3 nM.
On to `c1ccc(C2COc3cccc4c5c(OCCN6CCCCC6)cccc5n2c34)cc1` (centres unmarked) [Example 16, 1-Phenyl-1,2-dihydro[1,4]oxazino[2,3,4-jk]carbazol-7-yl 2-(1-piperidinyl)ethyl Ether], for which the affinity in data set [1] corresponds to a Ki of 5 nM.
On the same count and under the same terms, the figure for `CCN(CC)CCCOc1cccc2c1c1cccc3c1n2C(c1ccccc1)CO3` (centres unmarked) [Example 21, N,N-Diethyl-N-{3-[(1-phenyl-1,2-dihydro[1,4]oxazino[2,3,4-jk]carbazol-7-yl)oxy]propyl}amine] is 19 nM.
On the same count and under the same terms, the figure for `CNCCOc1cccc2c1c1cccc3c1n2C(c1ccccc1)CO3` (centres unmarked) [Example 8, N-Methyl-2-[(1-phenyl-1,2-dihydro[1,4]oxazino[2,3,4-jk]carbazol-7-yl)oxy]-1-ethanamine] is 2 nM; for `OCCNCCOc1cccc2c1c1cccc3c1n2C(c1ccccc1)CO3` (centres unmarked) [Example 17, 2-({2-[(1-Phenyl-1,2-dihydro[1,4]oxazino[2,3,4-jk]carbazol-7-yl)oxy]ethyl}amino)-1-ethanol] it is 1.1 nM; for `OCCNCCOc1cccc2c1c1cccc3c1n2[C@H](c1ccccc1)CO3` [Example 22, [(2-{[(1R)-1-Phenyl-1,2-dihydro[1,4]oxazino[2,3,4-jk]carbazol-7-yl]oxy}ethyl)amino]ethanol] it is 3 nM.
With `c1ccc(C2COc3cccc4c5c(OCCN6CCNCC6)cccc5n2c34)cc1` (centres unmarked) [Example 13, 1-Phenyl-1,2-dihydro[1,4]oxazino[2,3,4-jk]carbazol-7-yl 2-(1-piperazinyl)ethyl Ether], the melting point stood at 72 °C. Moreover, affinity in data set [1] was put at a Ki of 57 nM.
As for `NCCOc1cccc2c1c1cccc3c1n2[C@@H](c1ccccc1)CO3` [Example 1, (S)-(+)-[(1-Phenyl-1,2-dihydro[1,4]oxazino[2,3,4-jk]carbazol-7-yl)oxy]ethanamine], in data set [1], the Ki is 76 nM. This counts as double-digit nanomolar.
As for `CCN(CC)CCCCOc1cccc2c1c1cccc3c1n2C(c1ccccc1)CO3` (centres unmarked) [Example 20, N,N-Diethyl-N-{4-[(1-phenyl-1,2-dihydro[1,4]oxazino[2,3,4-jk]carbazol-7-yl)oxy]butyl}amine], the affinity in data set [1] corresponds to a Ki of 28 nM.
For `CN(C)CCOc1cccc2c1c1cccc3c1n2C(c1ccccc1)CO3` (centres unmarked) [Example 18, N,N-dimethyl-2-[(1-phenyl-1,2-dihydro[1,4]oxazino[2,3,4-jk]carbazol-7-yl)oxy]-1-ethanamine], the melting point was in the range of 117 to 118 °C. This molecule gave a Ki in data set [1] of 3.3 nM.
Consider `CCN(CC)CCOc1cccc2c1c1cccc3c1n2C(c1ccccc1)CO3` (centres unmarked) [Example 3, N,N-Diethyl-2-[(1-phenyl-1,2-dihydro[1,4]oxazino[2,3,4-jk]carbazol-7-yl)oxy]-1-ethanamine], for which the Ki in data set [1] stood at 7.6 nM.
On to `CCN(CC)CCOc1cccc2c1c1cccc3c1n2C(c1ccccc1)CO3` (centres unmarked) (as salt: maleic acid salt) [Example 3, N,N-Diethyl-2-[(1-phenyl-1,2-dihydro[1,4]oxazino[2,3,4-jk]carbazol-7-yl)oxy]-1-ethanamine], for which the melting point lay in the range of 105 to 107 °C.

The Ki is a dissociation constant, usually derived from enzyme kinetics or from competition with a known ligand. A low value points to higher affinity. For orientation: melting point means the temperature of the solid-liquid transition.
